ChEMBL document CHEMBL4813920, “Metronidazole-conjugates: A comprehensive review of recent developments towards synthesis and medicinal perspective” (Eur J Med Chem, 2021)
Converted amounts (≈) assume the structure as drawn.

Legend:
Leishmania mexicana = experiment: Antileishmanial activity against promastigote form of Leishmania mexicana MHOM/BZ/82/Bel21 measured for 7 days by cell counting method; type: functional; details: MHOM/BZ/82/Bel21, 168 h, time 7 day
Leishmania braziliensis = experiment: Antileishmanial activity against promastigote form of Leishmania braziliensis MHOM/BR/75/M2903 measured for 7 days by cell counting method; type: functional; details: MHOM/BR/75/M2903, 168 h, time 7 day
MCF7 [1] = experiment: cells; details: Homo sapiens, MCF7, 24 h
HEK293 = experiment: Cytotoxicity against HEK293 cells after 24 hrs by MTT assay; type: cell-based; details: Homo sapiens, HEK293, 24 h
MDA-MB-231 = experiment: Antiproliferative activity against human MDA-MB-231 cells after 24 hrs by MTT assay; type: functional, cell-based; details: MDA-MB-231, 24 h
Carbonic anhydrase 2 = Carbonic anhydrase 2 (Homo sapiens, UniProt P00918); experiment: Inhibition of recombinant human carbonic anhydrase 2 preincubated with enzyme for 15 mins by phenol red dye based stopped flow CO2 hydration assay
Carbonic anhydrase 9 = Carbonic anhydrase 9 (Homo sapiens, UniProt Q16790); experiment: Inhibition of recombinant human carbonic anhydrase 9 preincubated with enzyme for 15 mins by phenol red dye based stopped flow CO2 hydration assay
Escherichia coli [2] = experiment: Antibacterial activity against Escherichia coli ATCC 35218 incubated for 24 hrs by two fold serial dilution method; type: functional
[3] = Acute oral toxicity in mouse assessed as behavioral changes measured once daily for 14 days; details: in vivo, time 14 day
Bacillus spizizenii [4] = experiment: Antibacterial activity against Bacillus subtilis ATCC 6633 incubated for 24 hrs by two fold serial dilution method; type: functional
Pseudomonas aeruginosa [5] = experiment: Antibacterial activity against Pseudomonas aeruginosa ATCC 13525 incubated for 24 hrs by two fold serial dilution method; type: functional
[6] = Acute oral toxicity in mouse assessed as induction of mortality measured once daily for 14 days; details: in vivo, time 14 day
[7] = Acute oral toxicity in mouse assessed as signs of gross toxicity measured once daily for 14 days; details: in vivo, time 14 day
[8] = Inhibition of Escherichia coli N-terminal His-tagged FabH expressed in Escherichia coli BL21(DE3) by liquid scintillation counting method
Staphylococcus aureus [9] = experiment: Antibacterial activity against Staphylococcus aureus ATCC 6538 incubated for 24 hrs by two fold serial dilution method; type: functional
Helicobacter pylori [10] = experiment: Antibacterial activity against Helicobacter pylori ATCC 26695 incubated for 48 hrs by MTT assay; type: functional, organism-based
Helicobacter pylori [11] = experiment: Antibacterial activity against Helicobacter pylori P12 incubated for 48 hrs by MTT assay; type: functional, organism-based
Clostridium perfringens = experiment: Antibacterial activity against Clostridium perfringens ATCC 13124 incubated for 48 hrs under anaerobic condition by MTT assay; type: functional
Helicobacter pylori [12] = experiment: Antimicrobial activity against Helicobacter pylori clinical isolate3 for 3 days by agar dilution method; type: functional; details: clinical isolate3, 72 h, time 3 day
Helicobacter pylori [13] = experiment: Antimicrobial activity against Helicobacter pylori clinical isolate4 for 3 days by agar dilution method; type: functional; details: clinical isolate4, 72 h, time 3 day
Helicobacter pylori [14] = experiment: Antimicrobial activity against Helicobacter pylori ATCC 43504 incubated for 3 days by agar dilution method; type: functional; details: NCTC 11637 = CCUG 17874 = ATCC 43504, 72 h, time 3 day
Helicobacter pylori [15] = experiment: Antimicrobial activity against Helicobacter pylori clinical isolate1 for 3 days by agar dilution method; type: functional; details: clinical isolate1, 72 h, time 3 day
Helicobacter pylori [16] = experiment: Antimicrobial activity against Helicobacter pylori SS1 clinical isolate2 for 3 days by agar dilution method; type: functional; details: SS1 clinical isolate2, 72 h, time 3 day
Helicobacter pylori [17] = experiment: Antimicrobial activity against Helicobacter pylori SS1 incubated for 3 days by agar dilution method; type: functional; details: SS1, 72 h, time 3 day
Bacillus spizizenii [18] = experiment: Antibacterial activity against Bacillus subtilis ATCC 6633 by MH media dilution method; type: functional
Staphylococcus aureus [19] = experiment: Antibacterial activity against Staphylococcus aureus ATCC 6538 by MH media dilution method; type: functional
Pseudomonas aeruginosa [20] = experiment: Antibacterial activity against Pseudomonas aeruginosa ATCC 13525 by MH media dilution method; type: functional
Escherichia coli [21] = experiment: Antibacterial activity against Escherichia coli ATCC 35218 by MH media dilution method; type: functional
HepG2 [22] = experiment: cells; details: Homo sapiens, HepG2, 48 h
MCF7 [23] = experiment: cells; details: Homo sapiens, MCF7, 48 h
HeLa [24] = experiment: cells; details: Homo sapiens, 48 h
A549 [25] = experiment: cells; details: Homo sapiens, A549, 48 h
Candida albicans = experiment: Antimicrobial activity against Candida albicans ATCC 90023; type: functional
Candida parapsilosis = experiment: Antimicrobial activity against Candida parapsilosis ATCC 22019; type: functional; details: Lodderomyces parapsilosis
Pseudomonas aeruginosa [26] = experiment: Antibacterial activity against Pseudomonas aeruginosa ATCC 27853 by microbroth dilution method; type: functional
Escherichia coli [27] = experiment: Antibacterial activity against Escherichia coli by microbroth dilution method; type: functional
Acinetobacter baumannii = experiment: Antibacterial activity against Acinetobacter baumannii by microbroth dilution method; type: functional
Enterococcus faecalis = experiment: Antibacterial activity against Enterococcus faecalis by microbroth dilution method; type: functional
Giardia intestinalis = experiment: Antigiardial activity against Giardia intestinalis MSS:0696:1 incubated for 48 hrs; type: functional, organism-based; details: Giardia duodenalis, MSS:0696:1, 48 h
[28] = Selectivity index, ratio of CC50 for African green monkey Vero cells to IC50 for antigiardial activity against Giardia intestinalis MSS:0696:1; type: toxicity; details: read-out: Ratio CC50/IC50
[29] = Selectivity index, ratio of CC50 for African green monkey Vero cells to IC50 for antigiardial activity against Trichomonas vaginalis GT3; type: toxicity; details: read-out: Ratio CC50/IC50
Trichomonas vaginalis = experiment: Anti-trichomonas activity against Trichomonas vaginalis GT3 incubated for 48 hrs; type: functional, organism-based; details: GT3, 48 h
HeLa [30] = experiment: Antiproliferative activity against human Hela cells incubated for 24 to 48 hrs by CCK8 assay; type: functional, cell-based
HepG2 [31] = experiment: Antiproliferative activity against human HepG2 cells incubated for 24 to 48 hrs by CCK8 assay; type: functional, cell-based
A549 [32] = experiment: Antiproliferative activity against human A549 cells incubated for 24 to 48 hrs by CCK8 assay; type: functional, cell-based
U-251 = experiment: Antiproliferative activity against human U-251 cells incubated for 24 to 48 hrs by CCK8 assay; type: functional, cell-based

Cc1ncc([N+](=O)[O-])n1CCSCO
LC50 (Leishmania mexicana): 2250 µM | LC50 (Leishmania braziliensis): 950 µM

Cc1ncc([N+](=O)[O-])n1Cc1cn(CCCCCN2C(=O)C(=O)c3cc(F)ccc32)nn1
IC50 (MCF7 [1]): 70.7 µM | IC50 (HEK293): > 100 µM | IC50 (MDA-MB-231): 56.2 µM

Cc1ncc([N+](=O)[O-])n1CCOc1ccc(/C=N\c2ccc(S(=O)(=O)NC(=N)N)cc2)cc1
IC50 (Carbonic anhydrase 2): 0.07 µM | IC50 (Carbonic anhydrase 9): 0.135 µM

Cc1ccnc(NS(=O)(=O)c2ccc(/N=C/c3ccc(C(=O)OCCn4c([N+](=O)[O-])cnc4C)cc3)cc2)n1
MIC (Escherichia coli [2]): 3.13 µg/mL (≈ 5.7 µM) | LD50 at 336 h [3]: > 5000 mg/kg | MIC (Bacillus spizizenii [4]): 6.25 µg/mL (≈ 11.4 µM) | MIC (Pseudomonas aeruginosa [5]): 12.5 µg/mL (≈ 22.7 µM) | LD50 at 336 h [6]: > 5000 mg/kg | LD50 at 336 h [7]: > 5000 mg/kg | IC50 [8]: 5.59 µM | MIC (Staphylococcus aureus [9]): 12.5 µg/mL (≈ 22.7 µM)

Cc1ccc(C(C)C)cc1OC(=O)Cn1c([N+](=O)[O-])cnc1C
IC50 (Helicobacter pylori [10]): 52.35 uM/ml | IC50 (Helicobacter pylori [11]): 35.17 uM/ml | MIC (Clostridium perfringens): 0.0094 µM (≈ 0.00298 µg/mL)

Cc1ncc([N+](=O)[O-])n1CCOc1ccc(/C=N\c2ccc(S(=O)(=O)Nc3nccs3)cc2)cc1
IC50 (Carbonic anhydrase 2): 0.016 µM | IC50 (Carbonic anhydrase 9): 0.093 µM

Cc1cc(C)nc(NS(=O)(=O)c2ccc(/N=C/c3ccc(C(=O)OCCn4c([N+](=O)[O-])cnc4C)cc3)cc2)n1
MIC (Escherichia coli [2]): 1.56 µg/mL (≈ 2.77 µM) | LD50 at 336 h [3]: > 5000 mg/kg | MIC (Bacillus spizizenii [4]): 1.56 µg/mL (≈ 2.77 µM) | MIC (Pseudomonas aeruginosa [5]): 3.13 µg/mL (≈ 5.55 µM) | LD50 at 336 h [6]: > 5000 mg/kg | LD50 at 336 h [7]: > 5000 mg/kg | IC50 [8]: 2.69 µM | MIC (Staphylococcus aureus [9]): 3.13 µg/mL (≈ 5.55 µM)

Cc1cc(NNS(=O)(=O)c2ccc(/N=C\c3ccc(OCCn4c([N+](=O)[O-])cnc4C)cc3)cc2)no1
IC50 (Carbonic anhydrase 2): 0.033 µM | IC50 (Carbonic anhydrase 9): 0.112 µM

Cc1ncc([N+](=O)[O-])n1CCOc1ccc(C(=O)Cc2ccc([N+](=O)[O-])cc2)c(O)c1O
MIC (Helicobacter pylori [12]): 1.76 µM (≈ 0.779 µg/mL) | MIC (Helicobacter pylori [13]): 1.76 µM (≈ 0.779 µg/mL) | MIC (Helicobacter pylori [14]): 1.76 µM (≈ 0.779 µg/mL) | MIC (Helicobacter pylori [15]): 1.76 µM (≈ 0.779 µg/mL) | MIC (Helicobacter pylori [16]): 0.88 µM (≈ 0.389 µg/mL) | MIC (Helicobacter pylori [17]): 1.76 µM (≈ 0.779 µg/mL)

CC1(C)S[C@@H]2[C@H](NC(=O)[C@H](N)c3ccc(O)cc3)C(=O)N2[C@H]1C(=O)O [AMOXICILLIN]
MIC (Helicobacter pylori [12]): 1.07 µM (≈ 0.391 µg/mL) | MIC (Helicobacter pylori [13]): 1.07 µM (≈ 0.391 µg/mL) | MIC (Helicobacter pylori [14]): 0.14 µM (≈ 0.0512 µg/mL) | MIC (Helicobacter pylori [15]): 1.07 µM (≈ 0.391 µg/mL) | MIC (Helicobacter pylori [16]): 1.07 µM (≈ 0.391 µg/mL) | MIC (Helicobacter pylori [17]): 0.14 µM (≈ 0.0512 µg/mL)

O=C(N[C@H](CO)[C@H](O)c1ccc([N+](=O)[O-])cc1)C(Cl)Cl [CHLORAMPHENICOL]
MIC (Bacillus spizizenii [18]): 3.91 µg/mL (≈ 12.1 µM) | MIC (Staphylococcus aureus [19]): 3.91 µg/mL (≈ 12.1 µM) | MIC (Pseudomonas aeruginosa [20]): 0.98 µg/mL (≈ 3.03 µM) | MIC (Escherichia coli [21]): 3.91 µg/mL (≈ 12.1 µM)

COc1cc2c(c(OC)c1OC)-c1ccc(OC)c(=O)cc1[C@@H](NC(C)=O)CC2 [COLCHICINE]
IC50 (HepG2 [22]): 0.045 µM | IC50 (MCF7 [23]): 0.038 µM | IC50 (HeLa [24]): 0.055 µM | IC50 (A549 [25]): 0.037 µM

OC(Cn1cncn1)(Cn1cncn1)c1ccc(F)cc1F [FLUCONAZOLE]
MIC (Candida albicans): 156 µM (≈ 47.8 µg/mL) | MIC (Candida parapsilosis): 156 µM (≈ 47.8 µg/mL)

CCn1cc(C(=O)O)c(=O)c2cc(F)c(N3CCNCC3)cc21 [NORFLOXACIN]
MIC (Pseudomonas aeruginosa [26]): 1600 µM (≈ 513 µg/mL) | MIC (Escherichia coli [27]): 1600 µM (≈ 513 µg/mL) | MIC (Acinetobacter baumannii): 803 µM (≈ 256 µg/mL) | MIC (Enterococcus faecalis): 803 µM (≈ 256 µg/mL)

CC1(C)S[C@@H]2[C@H](NC(=O)Cc3ccccc3)C(=O)N2[C@H]1C(=O)O [PENICILLIN G]
MIC (Escherichia coli [2]): 3.13 µg/mL (≈ 9.36 µM) | MIC (Bacillus spizizenii [4]): 1.56 µg/mL (≈ 4.67 µM) | MIC (Pseudomonas aeruginosa [5]): 6.25 µg/mL (≈ 18.7 µM) | MIC (Bacillus spizizenii [18]): 0.98 µg/mL (≈ 2.93 µM) | MIC (Staphylococcus aureus [19]): 1.96 µg/mL (≈ 5.86 µM) | MIC (Pseudomonas aeruginosa [20]): 7.82 µg/mL (≈ 23.4 µM) | MIC (Escherichia coli [21]): 7.82 µg/mL (≈ 23.4 µM) | MIC (Staphylococcus aureus [9]): 6.25 µg/mL (≈ 18.7 µM)

CC1=CC(=O)c2c(O)cccc2C1=O [PLUMBAGIN]
IC50 (MDA-MB-231): 4.4 µM

Cc1ncc([N+](=O)[O-])n1CC(C)O (stereo not drawn) [SECNIDAZOLE]
IC50 (Giardia intestinalis): 4.41 µM | selectivity ratio [28]: > 24 | selectivity ratio [29]: > 7 | IC50 (Trichomonas vaginalis): 13.5 µM

C[C@@H]1CCN(C(=O)CC#N)C[C@@H]1N(C)c1ncnc2[nH]ccc12 [TOFACITINIB]
IC50 (HeLa [30]): 0.04 µM | IC50 (HepG2 [31]): 0.11 µM | IC50 (A549 [32]): 0.1 µM | IC50 (U-251): 0.33 µM
